In US8106233B2, “Antioxidant compounds” (Merck Patent GmbH, priority 2005, dated 2012):

Key:
[1] = 2,2-diphenyl-1-picrylhydrazyl (DPPH) assay; settings: DPPH in ethanol, 515 nm, 25° C.
Method: The unpaired electron results in a strong absorption band at 515 nm, and the solution has a dark-violet colour. In the presence of a free-radical scavenger, the electron is paired, the absorption disappears, and the decoloration proceeds stoichiometrically taking into account the electrons taken up. The absorbance is measured in a photometer. The anti-free-radical property of the substance to be tested is determined by measuring the concentration at which 50% of the 2,2-diphenyl-1-picrylhydrazyl employed has reacted with the free-radical scavenger. This concentration is expressed as EC50, a value which should be regarded as a property of the substance under the given measurement conditions. The substance investigated is compared with a standard (for example tocopherol). The EC50 value here is a measure of the capacity of the respective compound to scavenge free radicals. The lower the EC50 value, the higher the capacity to scavenge free radicals. […] A further important aspect for the action of the antioxidants is the time in which this EC50 value is achieved. This time, measured in minutes, gives the TEC50 value, which allows a conclusion to be drawn on the rate at which these antioxidants scavenge free radicals. […] The unpaired electron results in a strong absorption band at 515 nm, and the solution has a dark-violet colour. In the presence of a free-radical scavenger, the electron is paired, the absorption disappears, and the decoloration proceeds stoichiometrically taking into account the electrons taken up. The absorbance is measured in a photometer. The anti-free-radical property of the substance to be tested is determined by measuring the concentration at which 50% of the 2,2-diphenyl-1-picrylhydrazyl employed have reacted with the free-radical scavenger. This concentration is expressed as EC50, a value which should be regarded as a substance property under the given measurement conditions. The substance investigated is compared with a standard (for example tocopherol). The EC50 value here is a measure of the capacity of the respective compound to scavenge free radicals. The lower the EC50 value, the higher the capacity to scavenge free radicals. […] Various concentrations of the compound to be tested are added to aliquots of this solution. The absorbance is measured in each case at 515 nm, 25° C. and 1 cm. […] The lower this value, the higher the corresponding free-radical-reducing activity. The reaction time needed to achieve this value is indicated in the value TEC50 (in minutes).

[2] = Oxidation in UV light: change in the UV spectrum on irradiation; assay type: physicochemical; settings: xenon lamp
Method: The curves stand for the unirradiated substance (exposed to 0 kJ/m^2), after irradiation for 15 min (exposure to 86 kJ/m^2), after irradiation for 65 min (exposure to 373 kJ/m^2), after irradiation for 235 min (exposure to 1349 kJ/m^2) and after irradiation for 405 min (exposure to 2325 kJ/m^2).

[3] = Oxidation in UV light in the presence of further antioxidants: beta-carotene emulsions on irradiation; assay type: physicochemical; settings: emulsion with 0.5% by weight beta-carotene and 4% by weight compound vs emulsion without compound, UV irradiation for 90 min, n=4

Compound: Cc1c(C)c2c(c(C)c1O)CC[C@@](C)(CCC[C@H](C)CCC[C@H](C)CCCC(C)C)O2 [alpha-Tocopherol]
- Stability TEC50 (reaction time needed to achieve EC50) [1]: 30 min

Compound: O=C1O[C@H]([C@@H](O)CO)C(O)=C1O [Ascorbic acid]
- Stability TEC50 (reaction time needed to achieve EC50) [1]: <5 min

Compound: O=C1OC(C(O)CO)C(OP(=O)(O)O)=C1O (stereo not drawn) [Ascorbyl (2-O) phosphate]
- Stability TEC50 (reaction time needed to achieve EC50) [1]: 1200 min

Compound: CCCCC(CC)COC(=O)C(=Cc1cc(OC)c(O)c(OC)c1)C(=O)OCC(CC)CCCC (stereo not drawn) [Hydroxy dimethoxybenzylidene malonate, Di-2-ethylhexyl (4-hydroxy-3,5-dimethoxybenzylidene)malonate]
- Stability TEC50 (reaction time needed to achieve EC50) [1]: 1200 min

Compound: CC(=O)Oc1c(C)c(C)c2c(c1C)CCC(C)(CCC[C@H](C)CCC[C@H](C)CCCC(C)C)O2 (stereo partly drawn) [alpha-Tocopheryl acetate]
- Stability TEC50 (reaction time needed to achieve EC50) [1]: 600 min

Compound: CCCCC(CC)COC(=O)C(Cc1cc(OC)c(O)c(OC)c1)C(=O)OCC(CC)CCCC (stereo not drawn) [Hydroxy dimethoxybenzyl malonate, di-2-ethylhexyl 4-hydroxy-3,5-dimethoxy-benzylmalonate]
- Stability TEC50 (reaction time needed to achieve EC50) [1]: 600 min
- Emax of the UV-A absorption formed on irradiation ([2]; after UV irradiation, 290-400 nm): 320-340 nm
- Change in UV absorption in the UV-A region on irradiation ([2]; after irradiation for 65 min (373 kJ/m^2), 95.69 W/m^2 in the range 290-400 nm, increases further on longer irradiation): significantly increased UV absorption
- Effect on beta-carotene degradation (absorption at Emax 440-480 nm) in emulsion [3]: stabilises the beta-carotene
